In patent US9695155B2, “Herbicidal substituted pyrimidinyloxy benzene compounds” (E. I. DU PONT DE NEMOURS AND COMPANY, priority 2013, dated 2017):

Tests used:
waterhemp = assay: Test C postemergence; format: in vivo, Amaranthus rudis; details: for Plant response rating (0 to 100), Waterhemp: postemergence; for Plant response rating, Waterhemp: Postemergence, scale 0 to 100 (0 no effect, 100 complete control)
Outline: (§1)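 Visual injury score versus untreated controls, 0 = no effect, 100 = complete control, taken 13 to 15 days after treatment in the greenhouse. Pre-emergence pots held loam/sand; post-emergence plants grew in sphagnum peat/vermiculite mix and were sprayed at the 1- to 4-leaf stage.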

johnsongrass = assay: Test C postemergence; format: in vivo, Sorghum halepense; details: for Plant response rating, Johnsongrass: Postemergence
Outline: as §1

corn = assay: Test A preemergence; format: in vivo, Zea mays
Outline: (§2)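 Visual injury scored 0–100 (100 = complete control) against untreated controls about 10 days after treatment in a greenhouse. Test chemicals, formulated with surfactant in non-phytotoxic solvent, were sprayed on soil preemergence or on 2-10 cm, one- to two-leaf plants postemergence.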

velvetleaf = assay: Test C postemergence; format: in vivo, Abutilon theophrasti; details: for Plant response rating (0 to 100), Velvetleaf: postemergence; for Plant response rating, Velvetleaf: Postemergence, scale 0 to 100 (0 no effect, 100 complete control)
Outline: as §1

Italian ryegrass = assay: Test C postemergence; format: in vivo, Lolium multiflorum; details: for Plant response rating (0 to 100), Ryegrass, Italian: postemergence; for Plant response rating, Ryegrass, Italian: Postemergence, scale 0 to 100 (0 no effect, 100 complete control)
Outline: as §1

sedge, umbrella = assay: Test B flooded paddy test; format: in vivo, Cyperus difformis; details: Flood, 250 g ai/ha; 0 to 100 scale where 0 is no effect and 100 is complete control
Outline: (§3)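 2-leaf stage plants; pots flooded to 3 cm, compound added to paddy water, depth maintained. Greenhouse 13–15 d. Visual rating vs untreated controls, 0 (no effect) to 100 (complete control); dash = no result.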

morningglory = assay: Test A preemergence; format: in vivo, Ipomoea spp.; details: for Morningglory plant response rating: 0 to 100 scale, 0 no effect, 100 complete control, approx. 10 days
Outline: as §2

barnyardgrass [1] = assay: Test B flooded paddy test; format: in vivo, Echinochloa crus-galli; details: Flood, 250 g ai/ha; 0 to 100 scale where 0 is no effect and 100 is complete control
Outline: as §3

pigweed = assay: Test C postemergence; format: in vivo, Amaranthus retroflexus; details: for Plant response rating (0 to 100), Pigweed: postemergence; for Plant response rating, Pigweed: Postemergence, scale 0 to 100 (0 no effect, 100 complete control)
Outline: as §1

wild oat = assay: Test C postemergence; format: in vivo, Avena fatua; details: for Plant response rating (0 to 100), Oat, Wild: postemergence; for Plant response rating, Oat, Wild: Postemergence, scale 0 to 100 (0 no effect, 100 complete control)
Outline: as §1

barnyardgrass [2] = assay: Test A postemergence; format: in vivo, Echinochloa crus-galli
Outline: as §2

barnyardgrass [3] = assay: Test C postemergence; format: in vivo, Echinochloa crus-galli; details: for Plant response rating, Barnyardgrass: Postemergence
Outline: as §1

yellow nutsedge = assay: Test C postemergence; format: in vivo, Cyperus esculentus; details: for Plant response rating (0 to 100), Nutsedge, Yellow: postemergence; for Plant response rating, Nutsedge, Yellow: Postemergence, scale 0 to 100 (0 no effect, 100 complete control)
Outline: as §1

[4] = 31 g ai/ha, scale 0 to 100 (0 no effect, 100 complete control), 13 to 15 days
[5] = 62 g ai/ha, scale 0 to 100 (0 no effect, 100 complete control)
[6] = 125 g ai/ha, 0 to 100 scale where 0 is no effect and 100 is complete control
[7] = 16 g ai/ha, postemergence, visual rating, scale 0 to 100 (0 no effect, 100 complete control), 13 to 15 days
[8] = 1000 g ai/ha, 0 to 100 scale, 0 no effect, 100 complete control

Row | Compound | Plant response rating (0 to 100), Waterhemp (waterhemp; 125 g ai/ha) | Plant response rating, Waterhemp (waterhemp; 31 g ai/ha, 13 to 15 days) | Plant response rating, Waterhemp (waterhemp; 62 g ai/ha) | Plant response rating (0 to 100), Johnsongrass (johnsongrass; 125 g ai/ha, postemergence) | Plant response rating, Johnsongrass (johnsongrass; [4]) | Plant response rating, Johnsongrass (johnsongrass; [5]) | Plant response rating (0 to 100), Velvetleaf (velvetleaf; 125 g ai/ha) | Plant response rating, Velvetleaf (velvetleaf; 31 g ai/ha, 13 to 15 days) | Plant response rating, Velvetleaf (velvetleaf; 62 g ai/ha) | Plant response rating (0 to 100), Ryegrass, Italian (Italian ryegrass; 125 g ai/ha) | Plant response rating, Ryegrass, Italian (Italian ryegrass; 31 g ai/ha, 13 to 15 days) | Plant response rating, Ryegrass, Italian (Italian ryegrass; 62 g ai/ha) | Plant response rating, Sedge, Umbrella (sedge, umbrella) | Plant response rating, Barnyardgrass (barnyardgrass [1]) | Plant response rating (0 to 100), Pigweed (pigweed; 125 g ai/ha) | Plant response rating, Pigweed (pigweed; 31 g ai/ha, 13 to 15 days) | Plant response rating, Pigweed (pigweed; 62 g ai/ha) | Plant response rating (0 to 100), Oat, Wild (wild oat; 125 g ai/ha) | Plant response rating, Oat, Wild (wild oat; 31 g ai/ha, 13 to 15 days) | Plant response rating, Oat, Wild (wild oat; 62 g ai/ha) | also measured
1 | N#Cc1cccc(Oc2ncc(F)cn2)c1-n1cc(Br)cn1 [Compound 62] | 75 | 40 | 60 | 10 | 5 | 5 | 75 | 20 | 20 | 5 | 0 | 0 | 80 | 0 | 75 | 50 | 65 | 30 | 0 | 0 | Plant response rating (0 to 100), Waterhemp (waterhemp; 250 g ai/ha): 75; Plant response rating (0 to 100), Johnsongrass (johnsongrass; 250 g ai/ha, postemergence): 15; Plant response rating, Corn (corn; [6]): 0; Corn plant response rating (corn; 500 g ai/ha, 0 to 100 scale, 0 no effect, 100 complete control, approx. 10 days): 90; Plant response rating (0 to 100), Velvetleaf (velvetleaf; 250 g ai/ha): 85; Plant response rating (0 to 100), Ryegrass, Italian (Italian ryegrass; 250 g ai/ha): 15; Plant response rating, Morningglory (morningglory; [6]): 0; Morningglory plant response rating (morningglory; 500 g ai/ha): 90; Plant response rating (0 to 100), Pigweed (pigweed; 250 g ai/ha): 80; Plant response rating (0 to 100), Oat, Wild (wild oat; 250 g ai/ha): 35; Plant response rating, Barnyardgrass (barnyardgrass [2]; [6]): 90; Plant response rating, Barnyardgrass (barnyardgrass [2]; 500 g ai/ha, 0 to 100 scale, 0 no effect, 100 complete control): 100; Plant response rating (0 to 100), Barnyardgrass (barnyardgrass [3]; 125 g ai/ha, postemergence): 5; Plant response rating (0 to 100), Barnyardgrass (barnyardgrass [3]; 250 g ai/ha, postemergence): 10; Plant response rating, Barnyardgrass (barnyardgrass [3]; [4]): 0; Plant response rating, Barnyardgrass (barnyardgrass [3]; [5]): 5; Plant response rating (0 to 100), Nutsedge, Yellow (yellow nutsedge; 125 g ai/ha): 5; Plant response rating (0 to 100), Nutsedge, Yellow (yellow nutsedge; 250 g ai/ha): 15; Plant response rating, Nutsedge, Yellow (yellow nutsedge; 31 g ai/ha, 13 to 15 days): 0; Plant response rating, Nutsedge, Yellow (yellow nutsedge; 62 g ai/ha): 5
2 | Clc1cnc(Oc2cccc(Br)c2-n2cc(Br)cn2)nc1 [Compound 65] | 90 | 75 | 95 | 5 | 5 | 5 | 65 | 50 | 55 | 5 | 0 | 0 | 95 | 0 | 98 | 90 | 95 | 5 | 0 | 5 | Johnsongrass plant response rating (johnsongrass; [7]): 5; Plant response rating, Corn (corn; [8]): 40; Morningglory plant response rating (morningglory; 1000 g ai/ha): 100; Plant response rating, Barnyardgrass (barnyardgrass [2]; [8]): 100; Barnyardgrass plant response rating (barnyardgrass [3]; [7]): 5; Plant response rating (0 to 100), Barnyardgrass (barnyardgrass [3]; 125 g ai/ha, postemergence): 10; Plant response rating, Barnyardgrass (barnyardgrass [3]; [4]): 5; Plant response rating, Barnyardgrass (barnyardgrass [3]; [5]): 5; Plant response rating (0 to 100), Nutsedge, Yellow (yellow nutsedge; 125 g ai/ha): 15; Plant response rating, Nutsedge, Yellow (yellow nutsedge; 31 g ai/ha, 13 to 15 days): 5; Plant response rating, Nutsedge, Yellow (yellow nutsedge; 62 g ai/ha): 5
